The results in this text go back to US6646009B2, “N-(aryl)-2-arylethenesulfonamides and therapeutic uses thereof” (Temple University — Of Commonwealth System of Higher …, priority 2001, dated 2003).

Molecules are shown by their SMILES.

One experiment deals with DU145. As to the kind of experiment: GI50 growth inhibition, DU145. Type of experiment: cell-based. The protocol: (§1) The effect of the N-(aryl)-2-arylethenesulfonamides on normal fibroblasts and on tumor cells was determined by the assay described by Latham et al, Oncogene 12:827-837 (1996). Normal diploid lung human fibroblasts (HFL-1) or tumor cells (prostate, colorectal, breast, glial, pancreatic ovarian or leukemic) were plated in 6-well dishes at a cell density of 1.0×10^5 cells per 35-mm^2 well. The plated cells were treated 24 hours later with various concentrations of N-(aryl)-2-arylethenesulfonamide dissolved in dimethyl sulfoxide (DMSO). The total number of viable cells was determined 96 hours later by trypsinizing the wells and counting the number of viable cells, as determined by trypan blue exclusion, using a hemacytometer. Each compound tested (Exs. 1-17) inhibited cell proliferation when tested at a concentration of 30 micromolar. […] Normal HFL cells were treated with the same compounds under the same conditions of concentration and time.
(§2) A dose response curve was plotted for the tumor growth inhibitory effect of (E)-4-methoxystyryl-N-4-fluorophenyl sulfonamide on the estrogen-unresponsive breast cell line BT-20 (FIG. 1). The GI50 (the concentration of drug resulting in 50% net loss of growth inhibition) was determined as 10 μM. […] The (E)-4-methoxystyryl-N-4-fluorophenyl sulfonamide GI50 for the same compound against the cell lines listed in Table 7 was determined in the same manner.

In the next experiment the test system is PC-3. Nature of the experiment: GI50 growth inhibition, PC-3. The class given is cell-based. To be noted: Homo sapiens; PC-3, Prostate. The protocol: as §1, §2
Another experiment has as its system LNCAP. Nature of the experiment: GI50 growth inhibition, LNCAP. The class given is cell-based. Particulars: Homo sapiens, Prostate. How it is done:
as §1, §2

Another experiment has as its system DLD-1. As to the kind of experiment: GI50 growth inhibition, DLD-1. Type of experiment: cell-based. The protocol: as §1, §2
The next experiment deals with HCT-116. As to the kind of experiment: GI50 growth inhibition, HCT-116. Type of experiment: cell-based. To be noted: Homo sapiens; HCT-116, Colo-rectal. The protocol:
as §1, §2

In the next experiment the test system is COLO-320. Nature of the experiment: GI50 growth inhibition, COLO-320. Type of experiment: cell-based. To be noted: Homo sapiens; COLO-320, Colo-rectal. How it is done:
as §1, §2

The subject of experiment [1] is estrogen-unresponsive breast cell line BT-20. As to the kind of experiment: GI50 growth inhibition, BT-20. The class given is cell-based. The protocol: as §1, §2
The next experiment concerns SK-br-3. Nature of the experiment: GI50 growth inhibition, SK-br-3. The class given is cell-based. Particulars: Homo sapiens; SK-br-3, Breast. How it is done: as §1, §2
For a further experiment, the system named is U87. Nature of the experiment: GI50 growth inhibition, U87. The class given is cell-based. To be noted: Homo sapiens, U-87 MG; U87, Glioblastoma. The protocol: as §1, §2
In the next experiment the test system is MIA-PaCa-2. As to the kind of experiment: GI50 growth inhibition, MIA-PaCa-2. To be noted: Homo sapiens; MIA-PaCa-2, Pancreatic. The class given is cell-based. The protocol: as §1, §2
The subject of another experiment is SK-ov-3. As to the kind of experiment: GI50 growth inhibition, SK-ov-3. Type of experiment: cell-based. To be noted: Homo sapiens; SK-ov-3, Ovarian. How it is done: as §1, §2
A further experiment deals with CEM. As to the kind of experiment: GI50 growth inhibition, CEM. To be noted: Homo sapiens, CCRF-CEM, Leukemic. Type of experiment: cell-based. How it is done:
as §1, §2

For experiment [2], the system named is normal fibroblast line HFL-1. As to the kind of experiment: GI50 growth inhibition, HFL-1. Type of experiment: cell-based. To be noted: Homo sapiens, HFL1; HFL-1, Normal diploid lung. How it is done: as §1, §2
Another experiment deals with BT20 cells. Nature of the experiment: Induction of apoptosis: PARP cleavage Western blot, BT20. Type of experiment: cell-based. To be noted: 20 μM, 96 hours. The text has this: (§3) The caspases and the ICE-family proteases are cysteine proteases which are activated during apoptosis (Patel et al., FASEB 10:587-597, 1996). The cleavage of poly(ADP-ribose) polymerase (PARP), which is a target of caspase-3, apopain, and several other activated proteases, is a widely used and accepted marker for apoptosis (Nicholson et al., Nature 376(6533):37-43, 1995; Lippke et al., J. Biol. Chemistry 271:1825, 1996). For this assay, BT20 cells, an estrogen receptor negative breast carcinoma, and HFL-1 cells, normal lung fibroblasts, were treated with either (E)-4-methoxystyryl-N-4-fluorophenyl sulfonamide at a final concentration of 20 μM or dimethyl sulfoxide (DMSO) for 96 hours. The cells were then lysed in RIPA buffer and 100 μg of total cellular protein from each sample was resolved on a 10% SDS-polyacrylamide gel. The proteins were then Western blotted onto PROTRAN filter paper (S/S) and the filter was then probed with antibody (Boehringer Mannheim) specific for PARP. This antibody recognizes both the 116 kDa full length PARP and the 83 kDa cleaved product. […] The BT20 cells treated with DMSO for the same amount of time also had no activation of the apoptotic pathway.

In a further experiment the test system is HFL-1 cells. Nature of the experiment: Induction of apoptosis: PARP cleavage Western blot, HFL-1. Type of experiment: cell-based, human. Particulars: 20 μM, 96 hours.
Source text: as §3
In general terms: In western blotting, separated proteins are transferred to a membrane and probed.

In the next experiment the test system is H157. Nature of the experiment: GI50 growth inhibition, H157. Particulars: result in words. Type of experiment: cell-based. How it is done:
The effect of the N-(aryl)-2-arylethenesulfonamides on normal fibroblasts and on tumor cells was determined by the assay described by Latham et al, Oncogene 12:827-837 (1996). Normal diploid lung human fibroblasts (HFL-1) or tumor cells (prostate, colorectal, breast, glial, pancreatic ovarian or leukemic) were plated in 6-well dishes at a cell density of 1.0×10^5 cells per 35-mm^2 well. The plated cells were treated 24 hours later with various concentrations of N-(aryl)-2-arylethenesulfonamide dissolved in dimethyl sulfoxide (DMSO). The total number of viable cells was determined 96 hours later by trypsinizing the wells and counting the number of viable cells, as determined by trypan blue exclusion, using a hemacytometer. Each compound tested (Exs. 1-17) inhibited cell proliferation when tested at a concentration of 30 micromolar. […]
A dose response curve was plotted for the tumor growth inhibitory effect of (E)-4-methoxystyryl-N-4-fluorophenyl sulfonamide on the estrogen-unresponsive breast cell line BT-20 (FIG. 1). […] The (E)-4-methoxystyryl-N-4-fluorophenyl sulfonamide GI50 for the same compound against the cell lines listed in Table 7 was determined in the same manner.
The GI50 of (E)-4-methoxystyryl-N-3-fluoro-4-methoxyphenyl sulfonamide was determined for the following cell lines: BT20, DU145, H157 and DLD-1.

Broadly, the GI50 is the concentration giving 50% growth inhibition. As to `COc1ccc(/C=C/S(=O)(=O)Nc2ccc(F)cc2)cc1` [Example 4, (E)-4-methoxystyryl-N-4-fluorophenyl sulfonamide], the GI50 in the experiment with DU145 (Homo sapiens, DU-145, DU145, Prostate) turned out to be 10 µM; with PC-3, 20 µM; with LNCAP, 20 µM; in the experiment on DLD-1 (Homo sapiens, DLD-1, Colo-rectal) it was 15 µM; with HCT-116, 20 µM; in the experiment with COLO-320 it was 5 µM. In addition, the GI50 in experiment [1] (Homo sapiens, BT-20 (BT2O), Breast) was 10 µM; in the experiment with SK-br-3, 30 µM; in the experiment on U87 it was 20 µM; with MIA-PaCa-2, 7 µM; in the experiment with SK-ov-3, 15 µM; in the experiment on CEM, 30 µM. The same molecule showed a concentration for 50% growth inhibition (GI50) in experiment [2] of 50 µM. Further, the “PARP cleavage (83 kDa product, marker for apoptosis)” value in the experiment on BT20 cells was “presence of the 83 kDa PARP cleavage product”; with HFL-1 cells, “no cleavage of the full length PARP”.

Turning to `COc1ccc(/C=C/S(=O)(=O)Nc2ccc(OC)c(F)c2)cc1` [Example 5, (E)-4-methoxystyryl-N-3-fluoro4-methoxyphenyl sulfonamide], the “GI50 compared with (E)-4-methoxystyryl-N-4-fluorophenyl sulfonamide” value is listed as “in essential agreement” in the experiment on DU145 (DU145, result in words); “in essential agreement” in the experiment with DLD-1 (DLD-1, result in words); “in essential agreement” in experiment [1] (BT20, result in words); “in essential agreement” in the experiment with H157.
